Data reported in patent US12215078B2, “Compositions and methods for protein labeling, modification, analysis, and targeted delivery” (University of Massachusetts, priority 2018, dated 2025).
“Also recorded” adds a separate entry of the source.

What was measured:
[1] = Thiol-triggered declick of thiol/amine click products followed by NMR; type: physicochemical
Procedure: Typically, product of thiol-A1 or amine-A1 click product was dissolved in single or mixed deuterated solvents (the volume of solvent depends on the solubility of A1 The volume of solvent depends on the solubility of click product). Then, thiol was added to the solution. The reaction was immediately followed by NMR.
Compound 17: 10 μmol (1 eq.) of 17 was dissolved in 500 μL of MeOH-d4 and 500 μL of 50 mM pH6.8 phosphate buffer. Then, 80 μmol (8 eq.) of thiol was added to the solution. Final concentration of 17 is 10 mM.
Compound 18: 10 μmol (1 eq.) of 18 was dissolved in 500 μL of MeOH-d4 and 500 μL of 50 mM pH7.4 phosphate buffer. Then, 80 μmol (8 eq.) of thiol was added to the solution. Final concentration of 18 is 10 mM.
Compound 19: 10 μmol (1 eq.) of 19 was dissolved in 500 μL of MeOH-d4 and 500 μL of 50 mM pH7.4 phosphate buffer. Then, 10 μmol (0.5 eq.) of thiol was added to the solution. Final concentration of 19 is 10 mM.
Compound 20: 10 μmol (1 eq.) of 20 was dissolved in 1000 μL of MeOH-d4 and 500 μL of 50 mM pH7.4 phosphate buffer. Then, 10 μmol (0.5 eq.) of thiol was added to the solution. Final concentration of 20 is 6.67 mM.
Compound 21: 10 μmol (1 eq.) of 21 was dissolved in 500 μL of MeOH-d4 and 500 μL of 50 mM pH7.4 phosphate buffer. Then, 10 μmol (0.5 eq.) of thiol was added to the solution. Final concentration of 21 is 10 mM. […]

[2] = Thiol-click (click-to-release) kinetics followed by NMR; type: physicochemical; details: for relative reactivity in thiol and amine addition reactions (in words): both thiol and amine addition (FIG. 2B-2C); for thiol-click reaction rate (in words): MeOH-d4, A1:thiol 2:1 (FIG. 2B)
Procedure: (§1) 10 μmol (2 eq.) of A1 molecules was dissolved in single or mixed deuterated solvents (the volume of solvent depends on the solubility of A1). Then, 5 μmol (1 eq.) of 2-(2-Methoxyethoxy) ethanethiol or benzylamine was added to the solution. The reaction was immediately followed by NMR. The final concentration of A1 for each molecule is shown at the end of supplementary information case by case. The conversion of thiol or amine was calculated from the integration of corresponding peaks by NMR and plotted against reaction time.
Compound 1, 2, 3, 4, 5, 8, 11, 12, 13: 10 μmol (2 eq.) of molecule 1, 2, 3, 4, 5, 8, 11, 12, 13 was dissolved in 1000 μL of MeOH-d4. Then, 5 μmol (1 eq.) of thiol was added to the solution. The reaction was immediately followed by NMR.
Compound 6, 7, 9: 10 μmol (2 eq.) of molecule 6, 7, 9 was dissolved in 500 μL of MeOH-d4 and 500 μL of 50 mM pH 7.4 phosphate buffer. Then, 5 μmol (1 eq.) of thiol or amine was added to the solution. The reaction was immediately followed by NMR.
Compound 10: 10 μmol (2 eq.) of molecule 10 was dissolved in 1000 μL of DMSO-d6 and 500 μL of 50 mM pH 7.4 phosphate buffer. Then, 5 μmol (1 eq.) of thiol or amine was added to the solution. The reaction was immediately followed by NMR.
Compound 14, 15, 16: 10 μmol (2 eq.) of molecule 14, 15, 16 was dissolved in dissolved in 500 μL of MeOH-d4 and 500 μL of 50 mM pH 6.2 phosphate buffer. Then, 5 μmol (1 eq.) of thiol or amine was added to the solution. The reaction was immediately followed by NMR.

[3] = biological target: T1, β-lactoglobulin B (βLGb) (Bos taurus, UniProt P02754); assay: βLGb labeling, ESI-MS and MS/MS of digests; type: biochemical; details: for modification sites / selectivity on βLGb: digest, MS/MS; for time until βLGb fully labelled: excess of reagent, disappearance of unmodified protein peaks in ESI-MS; for number of modifications in βLGb: mass shift, ESI-MS
T1 construct: purchased
T1 sequence (P02754 17-178): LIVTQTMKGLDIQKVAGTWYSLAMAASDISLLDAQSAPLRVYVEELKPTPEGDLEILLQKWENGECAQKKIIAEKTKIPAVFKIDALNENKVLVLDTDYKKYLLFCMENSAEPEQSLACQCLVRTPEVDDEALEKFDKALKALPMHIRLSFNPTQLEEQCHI
Procedure: For βLGb labeling reaction, βLGb was first denatured by 8 M of urea to expose the free cysteine. The denatured protein was then diluted with 50 mM pH 8.0 phosphate buffer, which results in a protein solution concentration of 100 μM. This protein solution was incubated with 20 equivalents of 1 for 5 min or with 20 equivalents of 8 for 40 min at room temperature to obtain the fully modified proteins respectively. After labeling, the reaction mixtures were injected immediately into an HPLC to remove excess labeling reagents and phosphate salts and then later analyzed by ESI-MS.
The labeled βLGb protein samples were first buffer-exchanged using 10K NMWL Amicon Ultra centrifugal filters (Millipore, Burlington, MA) with 100 mM triethylamine acetate (pH 8.0), and reconstituted with 1 M urea before enzymatic digestion. To reduce the disulfide bonds in βLGb, TCEP in water was added at a protein:TCEP molar ratio of 1:20, and the sample was incubated at room temperature for 10 min. To alkylate the reduced cysteines, iodoacetamide in water was added at a protein:iodoacetamide molar ratio of 1:80, and the sample was incubated in the dark at room temperature for 30 min. The denatured, reduced, and alkylated protein samples were then digested with trypsin at an enzyme: substrate ratio of 1:10. After 4 h of digestion at 37° C., the enzyme was separated from the mixture by centrifugation using a 10K NMWL Microcon filter (Millipore, Burlington, MA). The filtrate was then analyzed by LC-MS and LC-MS/MS.
To quench the labeling reaction and to remove excess labeling reagents and buffer salts, a Thermo Scientific Ultimate 3000 HPLC system (Thermo Scientific, Tewksbury, MA) with an OPTI-TRAP C4 reverse phase column (1×8 mm) was used. The protein was eluted using an acetonitrile gradient that increases from 1 to 99% over 12 min at a flow rate of 0.2 mL/min. The labeled protein was collected for proteolytic digestion or intact protein MS characterization.
Mass spectral analyses of the HPLC separated intact protein samples (Myo and βLGb) from the covalent labeling experiments were acquired on a Bruker AmaZon (Billerica, MA) quadrupole ion trap mass spectrometer equipped with an electrospray ionization source. The electrospray needle voltage was kept at 4 kV, and the capillary temperature was set to 250° C. Mass spectra of intact BCA protein samples were acquired on a Thermo Orbitrap Fusion Tribrid (Tewksbury, MA) mass spectrometer. The electrospray ionization source was typically operated at a needle voltage of 3800 V, and the ion transfer tube temperature was set to 325° C.
LC-MS and LC-MS/MS analyses of protein proteolytic fragments were conducted on a Thermo Orbitrap Fusion Tribrid (Tewksbury, MA) mass spectrometer. The electrospray ionization source was typically operated at a needle voltage of 2100 V, and the ion transfer tube temperature was set to 300° C. Tandem mass spectra were collected using CID with a normalized collision energy of 35%. Due to the large number of detectable peaks, an exclusion limit of 60 s was applied after five spectra had been collected for any given peak. The resolution of the Orbitrap was set to 60000.
Raw mass spectral data files were analyzed by Thermo Proteome Discoverer 2.2 software. Spectra were searched against the corresponding protein sequence. Variable modification by certain labeling reagents of the residues and the protein N-terminus was added as a dynamic modification. Other dynamic modifications such as oxidation of methionine and carboxyamidomethylation of cysteine were also used in the searches. Trypsin enzyme cleavage was selected, and a precursor mass tolerance of 10 ppm was used. Identifications of peptides and modifications at high confidence levels were used and were manually checked in all cases.

[4] = Amine-click kinetics followed by NMR; type: physicochemical
Procedure: as §1
• Compound 1, 2, 3, 4, 5, 6, 7, 8, 9, 11, 12, 13: 10 μmol (2 eq.) of molecule 1, 2, 3, 4, 5, 6, 7, 8, 9, 11, 12, 13 was dissolved in 500 μL of MeOH-d4 and 500 μL of 50 mM pH 7.4 phosphate buffer. Then, 5 μmol (1 eq.) of benzylamine was added to the solution. The reaction was immediately followed by NMR.
Compound 10: 10 μmol (2 eq.) of molecule 10 was dissolved in 1000 μL of DMSO-d6 and 500 μL of 50 mM pH 7.4 phosphate buffer. Then, 5 μmol (1 eq.) of benzylamine was added to the solution. The reaction was immediately followed by NMR.
Compound 14, 15, 16: 10 μmol (2 eq.) of molecule 14, 15, 16 was dissolved in 800 μL of MeOH-d4 and 200 μL of 50 mM pH 7.4 phosphate buffer. Then, 5 μmol (1 eq.) of benzylamine was added to the solution. The reaction was immediately followed by NMR.

[5] = biological target: T2, Myoglobin (Myo) (Equus caballus, UniProt P68082); assay: Myoglobin reversible modification and biophysical characterization; type: biochemical
T2 construct: purchased
Procedure: For Myoglobin (Myo) reversible modification reactions, the modified protein solution was prepared by reacting 100 μM of the Myo with 20 equivalents of 1 for 5 min in 50 mM pH 8.0 phosphate buffer at room temperature. The proteins were collected from HPLC purification from previous modification reactions, and the excess labeling reagents were removed from the reaction mixtures. The collected protein solution was characterized by ESI-MS or other biophysical characterizations such as Circular Dichroism (CD) and Ultraviolet-Visible Spectroscopy (UV-Vis). The same protein solution was also buffer-exchanged using 10K NMWL Amicon Ultra centrifugal filters (Millipore, Burlington, MA) with 50 mM pH 7.4 phosphate buffer to yield a 100 μM solution for further reverse reaction. […] After reverse modification reaction, the reaction mixture was injected to a LC-MS system for intact protein analyses. […]
Far-UV CD analyses were performed on a Jasco J-1500 spectropolarimeter. CD spectra were recorded at room temperature over a scan range of 260 to 200 nm. […]
Temperature dependent CD measurements were also performed for the protein samples to evaluate the thermal stability (melting temperature) of Myo before and after labeling. Ellipticity at 222 nm was recorded every 1° C. from 25° C. to 90° C. […] Samples were measured in triplicates and the results were shown in average values.

T2 sequence (P68082 whole entry): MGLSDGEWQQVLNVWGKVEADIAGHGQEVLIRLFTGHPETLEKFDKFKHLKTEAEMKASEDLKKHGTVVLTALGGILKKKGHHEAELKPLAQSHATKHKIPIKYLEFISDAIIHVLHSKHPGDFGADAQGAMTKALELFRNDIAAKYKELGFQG

C=C(CN(CC(=C)C(=O)OC)Cc1ccccc1)C(=O)OC [Compound 23]
benzylamine (29) released in declick ([1]; 2 equivalents of T2, MeOH-d4 / 50 mM pH 7.4 phosphate buffer 2:1): More than 80%

C=C(COC(=O)Nc1ccc([N+](=O)[O-])cc1)C(=O)NC [Compound 10]
relative reactivity in thiol and amine addition reactions (in words) [2]: considerably slower than the corresponding acrylates

C=C(CSCCOCCOC)C(=O)OC [Compound 17]
originally clicked T2 released in declick ([1]; 8 equivalents of ethanethiol (T1), MeOH-d4 / 50 mM pH 6.8 phosphate buffer 1:1): 70%

C=C(C[N+](CC)(CC)CC)C(=O)OC [Compound 1]
modification sites / selectivity on βLGb [3]: non-selective; also recorded: modifications of other nucleophilic residues including lysine, tyrosine and threonine
time until βLGb fully labelled [3]: ≤ 5 min
number of modifications in βLGb [3]: one to four
time for completion of reaction with benzylamine ([4]; pH 7.4): ~50 min
time for completion of reaction with the thiol ([2]; 1H NMR, 0.5 equivalent of thiol, 50 mM pH 7.4 phosphate buffer (FIG. 7)): 3 min
reversal of myoglobin modification by thiol ([5]; 10 equivalents of thiol for 2 hours): reversed to unmodified myoglobin
modifications on myoglobin ([5]; treated with 1, ESI-MS): Multiple modifications

C=C(C[N+](CC)(CC)CC)C(=O)NC [Compound 8]
modification sites / selectivity on βLGb [3]: only the free cysteine site was modified
time until βLGb fully labelled [3]: ≤ 40 min
number of modifications in βLGb [3]: one
relative reactivity in thiol and amine addition reactions (in words) [2]: considerably slower than the corresponding acrylates; also recorded: less reactive than ester 1

C=C(COC(C)=O)C(=O)NC [Compound 9]
relative reactivity in thiol and amine addition reactions (in words) [2]: considerably slower than the corresponding acrylates

C=C(C[n+]1ccccc1)C(=O)OC [Compound 4]
reactivity toward benzylamine (in words) ([4]; pH maintained, deuterated MeOH/buffer mixed media (FIG. 2C)): higher than 5
thiol-click reaction rate (in words) [2]: much slower

C=C(C[n+]1ccc(N(C)C)cc1)C(=O)OC [Compound 5]
thiol-click reaction rate (in words) [2]: much slower; also recorded: faster than 4
